Reference: US20090246185A1, “CARDIAC DYSFUNCTION-AMELIORATING AGENT OR CARDIAC FUNCTION-MAINTAINING AGENT” (KANEKA CORPORATION, priority 2006, published 2009)
Marks after values point to notes of the source that are not given here.

Key:
rats = details: 1200 mg/kg/day consecutive administration for 52 weeks; cited from earlier work
[1] = tested on: ischemia-reperfusion model; experiment: Heart weight (body weight ratio) in rat ischemia-reperfusion model; format: in vivo; details: for body weight ratio of heart weight: left atrium / body weight ratio of heart weight: left ventricle / body weight ratio of heart weight: right atrium / body weight ratio of heart weight: right ventricle: male SD rats, ischemia-reperfusion, 30 mg/kg per day oral in corn oil, 5 weeks, average; for effect on increase in heart weight (edema), in words: rat ischemia-reperfusion model, 30 mg/kg per day oral, vs. control group
Description: (§1) Male SD rats (9-week-old, Japan SLC Inc.) were divided into four groups. Each rat was anesthetized with pentobarbital sodium (35-45 mg/kg, i.p.), and fixed at the dorsal position. A tracheal tube was orally inserted into the airway, artificial respiration was performed by an artificial respirator for small animals, and the medial wall of the thorax was opened to expose the heart. In three groups, the left anterior descending artery (LAD) was obstructed for 30 min with a surgical needle with a thread. At this time, an electrocardiogram was measured via an amplifier for electrocardiogram, and the presence or absence of occlusion was confirmed based on the changes in the ST electrical potential and cardiac muscle color. An ischemia-reperfusion model was prepared by reperfusing the blood flow after 30 min from the occlusion. Thereafter, in all groups, the thorax was closed, sutured, and disinfected with a veterinary Isodine solution.
(§2) The following samples were administered to each group for 1 week before the above-mentioned operation and 4 weeks after the operation (total 5 weeks).
(§3) Group for which occlusion treatment was performed, and oxidized coenzyme Q10 dissolved in corn oil was orally administered at a dosage of 30 mg/kg per day based on the amount of oxidized coenzyme Q10
(§4) Group for which occlusion treatment was performed, and […] dissolved in corn oil was orally administered at a dosage of 30 mg/kg per day based on the amount of reduced coenzyme Q10
After cardiac function evaluation, the animals were euthanized by dislocation of cervical spine under anesthesia, and the heart was removed. The right atrium weight, left atrium weight, right ventricle weight, left ventricle weight and overall weight of the heart (weight of both atria+weight of both ventricles) were measured. For evaluation, the body weight ratio of the right atrium weight, the body weight ratio of the left atrium weight, the body weight ratio of the right ventricle weight and the body weight ratio of the left ventricle weight were calculated.

[2] = tested on: ischemia-reperfusion model; experiment: Cardiac function evaluation (left ventricular end-diastolic pressure) in rat ischemia-reperfusion model; format: in vivo; details: for left ventricle end-diastolic pressure: male SD rats, LAD occlusion 30 min then reperfusion, 30 mg/kg per day oral in corn oil, 1 week before and 4 weeks after operation, mean ± standard error; for effect on elevation of the end-diastolic pressure (cardiac function), in words: rat ischemia-reperfusion model, 30 mg/kg per day oral, vs. control group
Description: as §1, §2, §3, §4
After measuring the body weight on the next day of the final administration, the rats were fixed at the dorsal position under pentobarbital sodium (25-35 mg/kg, i.p.) anesthesia, and a mirror catheter was inserted into the right carotid artery. After confirmation of the stable condition, the left ventricle internal pressure wave pattern was led to a biological electric amplifier to enlarge same, and the left ventricular end-diastolic pressure (LVEDP) was measured.

[3] = Absorbability evaluation: total coenzyme Q10 in plasma and heart by HPLC; details: male SD rats, 100 mg/kg oral in soybean oil once a day for 4 weeks; average, N=3
Description: Male SD rats (5-week-old, Japan SLC Inc.) were each orally administered with soybean oil (control group), oxidized coenzyme Q10 (100 mg/kg) dissolved in soybean oil (oxidized coenzyme Q10 group) and reduced coenzyme Q10 (containing 1 wt % of oxidized coenzyme Q10; 100 mg/kg) dissolved in soybean oil (reduced coenzyme Q10 group) once a day for 4 consecutive weeks (each group N=3). After completion of the administration, blood samples were taken and the heart was removed, and the total amount of coenzyme Q10 (total amount of oxidized coenzyme Q10 and reduced coenzyme Q10) in plasma and heart was quantified by HPLC according to a conventional method.

Compound | toxic influence in chronic toxicity test (rats) | body weight ratio of heart weight: left atrium [1] | body weight ratio of heart weight: left ventricle [1] | body weight ratio of heart weight: right atrium [1] | body weight ratio of heart weight: right ventricle [1] | effect on increase in heart weight (edema), in words [1] | left ventricle end-diastolic pressure [2] | effect on elevation of the end-diastolic pressure (cardiac function), in words [2] | total coenzyme Q10 concentration in heart [3] | total coenzyme Q10 concentration in plasma [3]
COC1=C(OC)C(=O)C(C/C=C(\C)CC/C=C(\C)CC/C=C(\C)CC/C=C(\C)CC/C=C(\C)CC/C=C(\C)CC/C=C(\C)CC/C=C(\C)CC/C=C(\C)CCC=C(C)C)=C(C)C1=O [oxidized coenzyme Q10, reference compound] | did not show a toxic influence | 0.081 | 1.823 | 0.135 | 0.498 | suppressed increase in the heart weight in all parts | 8.3 ± 0.7 mmHg | did not provide an ameliorating effect | – | –
COc1c(O)c(C)c(C/C=C(\C)CC/C=C(\C)CC/C=C(\C)CC/C=C(\C)CC/C=C(\C)CC/C=C(\C)CC/C=C(\C)CC/C=C(\C)CC/C=C(\C)CCC=C(C)C)c(O)c1OC [reduced coenzyme Q10] | – | 0.089 | 1.879 | 0.146 | 0.508 | suppressed increase in the heart weight in all parts | 5.7 ± 0.4 mmHg | significant suppression of elevation of the end-diastolic pressure | 9.33 µg/mL | 0.39* μg/ml
